Measurements: ChEMBL document CHEMBL1201862, “PubChem BioAssay data set” (2004)
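Interpolation was linear, between the two tested concentrations surrounding the appropriate level; five concentrations were tested over 48 hours in 96-well plates. At the GI50, growth is halved.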 Calls of active or inactive are those of the source. Cut-off read from the data, not from the text of the source: active = GI50 up to about 1.1 µM and inactive = higher.

What was measured:
Test in all cases: NCI anticancer screen, dose series, 48 h
A498 = test system: A498
A549 = test system: A549
ACHN = test system: ACHN
BT-549 = test system: BT-549
CCRF-CEM = test system: CCRF-CEM
COLO 205 = test system: COLO 205
HCT-116 = test system: HCT-116
IGROV-1 = test system: IGROV-1
KM12 = test system: KM12
MDA-MB-231 = test system: MDA-MB-231
Malme-3M = test system: Malme-3M
NCI-H460 = test system: NCI-H460
NCI/ADR-RES = test system: NCI/ADR-RES
OVCAR-4 = test system: OVCAR-4
SF-268 = test system: SF-268
SF-295 = test system: SF-295
SF-539 = test system: SF-539
SNB-19 = test system: SNB-19
UACC-257 = test system: UACC-257
UACC-62 = test system: UACC-62

| Structure (SMILES) | GI50 (A498) | GI50 (A549) | GI50 (ACHN) | GI50 (BT-549) | GI50 (CCRF-CEM) | GI50 (COLO 205) | GI50 (HCT-116) | GI50 (IGROV-1) | GI50 (KM12) | GI50 (MDA-MB-231) | GI50 (Malme-3M) | GI50 (NCI-H460) | GI50 (NCI/ADR-RES) | GI50 (OVCAR-4) | GI50 (SF-268) | GI50 (SF-295) | GI50 (SF-539) | GI50 (SNB-19) | GI50 (UACC-257) | GI50 (UACC-62) |
| --- | --- | --- | --- | --- | --- | --- | --- | --- | --- | --- | --- | --- | --- | --- | --- | --- | --- | --- | --- | --- |
| CCC(C#N)NCc1cccc(CNC(C#N)CC)c1 (stereo not given) | > 100 µM (inactive) | > 100 µM (inactive) | > 100 µM (inactive) | > 100 µM (inactive) | > 100 µM (inactive) | > 100 µM (inactive) | > 100 µM (inactive) | > 100 µM (inactive) | > 100 µM (inactive) | > 100 µM (inactive) | > 100 µM (inactive) | > 100 µM (inactive) | > 100 µM (inactive) | > 100 µM (inactive) | > 100 µM (inactive) | 19.5 µM (inactive) | > 100 µM (inactive) | > 100 µM (inactive) | > 100 µM (inactive) | > 100 µM (inactive) |
| CN(Cc1cnc2nc(N)nc(N)c2n1)c1ccc(C(=O)NC(CCC(=O)NCCC(P(=O)(O)O)P(=O)(O)O)C(=O)O)cc1 (stereo not given) | 78 µM (inactive) | 11.6 µM (inactive) | 11.5 µM (inactive) | > 100 µM (inactive) | 6.08 µM (inactive) | > 82.6 µM (inactive) | 3.67 µM (inactive) | 35.2 µM (inactive) | 6.38 µM (inactive) | > 100 µM (inactive) | > 35.8 µM (inactive) | 4.35 µM (inactive) | 21.5 µM (inactive) | > 100 µM (inactive) | 14.2 µM (inactive) | 18.7 µM (inactive) | 10.3 µM (inactive) | > 87.7 µM (inactive) | > 100 µM (inactive) | 28.4 µM (inactive) |
| CCSc1c2cc(OC)ccc2nc2ccc(OC)cc12 | 9.4 µM (inactive) | 25.6 µM (inactive) | 18.6 µM (inactive) | 23.7 µM (inactive) | 5.56 µM (inactive) | 7.26 µM (inactive) | 6.05 µM (inactive) | 18.3 µM (inactive) | 11.2 µM (inactive) | 8.57 µM (inactive) | 13.7 µM (inactive) | 13.2 µM (inactive) | 12.1 µM (inactive) | 11.7 µM (inactive) | 10.9 µM (inactive) | 22.4 µM (inactive) | 15.3 µM (inactive) | 26.2 µM (inactive) | 9.98 µM (inactive) | 10.9 µM (inactive) |
| C=C(C)C(=O)OC1C(C(C)CCCO)=C(CO)CC2OC(=O)C(=C)C21 (stereo not given) | 17.1 µM (inactive) | 23.2 µM (inactive) | 24.1 µM (inactive) | 14 µM (inactive) | 12.6 µM (inactive) | 15.1 µM (inactive) | 14.6 µM (inactive) | 15.6 µM (inactive) | 12.6 µM (inactive) | 17.5 µM (inactive) | 0.509 µM (active) | 16.4 µM (inactive) | 33.5 µM (inactive) | 28.1 µM (inactive) | 17.1 µM (inactive) | 47.2 µM (inactive) | 23 µM (inactive) | 37.9 µM (inactive) | 17.1 µM (inactive) | 14.9 µM (inactive) |
